Measured values as given in patent US10208074B2, “Pyrazole compounds and method for making and using the compounds” (Rigel Pharmaceuticals, Inc., priority 2015, dated 2019).
pEC50: −log10 of the molar value. Structures can show the parent of a compound that is named as a salt.

Test system: IL-23p19
Assay: LPS induced IL23p19 in THP-1 cells (with IFNγ primed) assay
Assay type: cell-based, Human
Conditions: Homo sapiens, THP-1, 18 h, THP-1 cells, IFNγ primed, LPS 1 ug/mL, 18 hours, 10 pt; read-out: IL23-p19 ELISA, THP1-IFNy, LPS, 10 pt EC50
Description: LPS Induced IL23p19 in THP-1 Cells (with IFNγ Primed) Assay
THP-1 Cells (ATCC, Cat#TIB-202), Dimethyl Sulfoxide (DMSO) (Sigma-Aldrich, Cat#D2650), RPMI 1640 (Cellgro, Cat#10-040-CM), Fetal Bovine Serum (Sigma, Cat#F4135), Albumin From Bovine Serum (BSA) (Sigma-Aldrich, Cat#A7906), LPS (Serotype K-235, Sigma, Product Number L 2143), IFNγ (Peprotech, Cat#300-02) Capture antibody: Human IL-23p19 ELISA (e-Bioscience, Cat. #14-7238-85), Detection antibody: Primary Mouse Biotinylated anti-human IL-12(p40/p70) (e-Bioscience, Cat. #13-7129-85), Secondary HRP-conjugated Streptavidin (R&D Systems, Cat#DY998), 1×PBST Washing Buffer (PBS-Tween tablet) (VWR International, Cat#80058-558), ELISA Blocking Buffer (PBS with 1% BSA), ELISA Dilution Buffer (PBS with 1% BSA), 384 Well Flat-Bottom, MaxiSorp Black Immuno Plates (Thermo Scientific, Cat#12-565-346), 384 Well Flat-Bottom, White Tissue Culture Plates (Thermo Scientific, Cat#12-565-343), Super Signal ELISA Pico Chemiluminescent Substrate (Thermo Scientific, Cat#37070), Cell Titer Glo reagent (Promega, Cat#G7573), Positive control, IKK2VI inhibitor (Calbiochem, Cat#401483), AquaMax 4000 plate washer (Molecular Devices), Luminometer, Wallac Victor2 1420 Multilabel Counter.
On day 1, 50K/well THP-1 cells were seeded and primed with IFNγ (50 ng/mL) in 384-well plates for about 18 hours in RPMI media with 10% FBS. On day 2, the compound was serially diluted in DMSO from 5 mM in 3-fold dilutions, and then diluted 1:125 in RPMI media with 10% FBS. 50 μL/well 2× compound was added to 50 μL/well THP-1 cells (with IFNγ primed) in duplicate in 384 well tissue culture plates. The cells were pre-incubated with compound for 1 hour at 37° C., 5% CO2 before addition of 10 μL/well 11×LPS to give a final concentration of 1 ug/mL LPS. Day 3, after stimulation for 18 hours at 37° C., 5% CO2, the assay plate was centrifuged and 70 μL/well supernatant was harvested. IL-23p19 protein in 70 μL/well of supernatant was measured by sandwich ELISA, and 25 μl/well Cell Titer Glo reagent was added to the remaining cells to measure compound toxicity.
Maxisorp immuno ELISA plates were pre-coated with 25 μL/well of anti-IL-23p19 capture antibody (2.5 ug/mL) in PBS overnight at room temperature. After washing with 1× PBST, the plates were blocked using 100 μL/well of 1% BSA in PBS for 2 hours at room temperature. The plates were washed three times with 1×PBST and 70 μL/well supernatant were added. The plates were incubated at room temperature for 2 hours with shaking and washed three times with 1×PBST. 25 μL/well of biotin labeled anti-IL-12(p40/p70) detection antibody (100 ng/mL) in PBS with 1% BSA was added and the plates were incubated at room temperature for 2 hours with shaking. After washing three times with 1×PBST, 25 μL/well of streptavidin-HRP (1:200) in PBS with 1% BSA was added and the plates were incubated at room temperature for 20 minutes with shaking. The plates were washed three times with 1× PBST and 25 μL/well of Super Signal ELISA Pico Chemiluminescent Substrate were added. The plates were read with a luminometer, and the chemiluminescence values were entered into Athena (Rigel) for curve fitting, EC50 calculation, and database storage.

Q: With Cn1cc(NC(=O)c2coc(-c3cnn(CC4CC4)c3)n2)c(-c2ccccn2)n1 [III-1, 2-(1-(cyclopropylmethyl)-1H-pyrazol-4-yl)-N-(1-methyl-3-(pyridin-2-yl)-1H-pyrazol-4-yl)oxazole-4-carboxamide] as the compound, how does the pEC50 read?
A: 4.69

Q: O=C(Nc1cn(C(=O)N2CCOCC2)nc1-c1ccccn1)c1csc(-c2cn[nH]c2)n1 [II-129, N-(1-(morpholine-4-carbonyl)-3-(pyridin-2-yl)-1H-pyrazol-4-yl)-2-(1H-pyrazol-4-yl)thiazole-4-carboxamide] was tested. Which pEC50 did it give?
A: 6.42

Q: O=C(Nc1cn(C(F)F)nc1-c1ccccn1)c1csc(-c2cnn(C(F)F)c2)n1 [II-98, 2-(1-(difluoromethyl)-1H-pyrazol-4-yl)-N-(1-(difluoromethyl)-3-(pyridin-2-yl)-1H-pyrazol-4-yl)thiazole-4-carboxamide] was tested. Which pEC50 did it give?
A: 4.61

Q: With CCO[C@H]1C[C@@H](n2cc(NC(=O)c3csc(-c4cn[nH]c4)n3)c(C(F)(F)F)n2)C1 [II-62, N-(1-((1s,3s)-3-ethoxycyclobutyl)-3-(trifluoromethyl)-1H-pyrazol-4-yl)-2-(1H-pyrazol-4-yl)thiazole-4-carboxamide] as the compound, how does the pEC50 read?
A: 5.19

Q: COc1ccc(Cn2cc(-c3nc(C(=O)Nc4cn(CC(O)C(F)(F)F)nc4-c4ccccn4)cs3)cn2)cc1 (stereo not shown) [II-103, 2-(1-(4-methoxybenzyl)-1H-pyrazol-4-yl)-N-(3-(pyridin-2-yl)-1-(3,3,3-trifluoro-2-hydroxypropyl)-1H-pyrazol-4-yl)thiazole-4-carboxamide] was tested. Which pEC50 did it give?
A: 5.09

Q: How did the pEC50 turn out when COCCOCCn1cc(-c2ccc(C(=O)Nc3cn(CCOCCOC)nc3-c3ccccn3)o2)cn1 [Compound I-52, 5-(1-(2-(2-methoxyethoxy)ethyl)-1H-pyrazol-4-yl)-N-(1-(2-(2-methoxyethoxy)ethyl)-3-(pyridin-2-yl)-1H-pyrazol-4-yl)furan-2-carboxamide formate] was run?
A: 5.86

Q: How did the pEC50 turn out when COc1ccc(Cn2cc(-c3nc(C(=O)Nc4cn(C(=O)N(C)C)nc4-c4ccccn4)cs3)cn2)cc1 [II-105, N-(1-(dimethylcarbamoyl)-3-(pyridin-2-yl)-1H-pyrazol-4-yl)-2-(1-(4-methoxybenzyl)-1H-pyrazol-4-yl)thiazole-4-carboxamide] was run?
A: 5.26

Q: With CCO[C@H]1C[C@@H](n2cc3c(n2)CCCN3C(=O)c2csc(-c3cn[nH]c3)n2)C1 [II-67, (2-(1H-pyrazol-4-yl)thiazol-4-yl)(2-((1s,3s)-3-ethoxycyclobutyl)-2,5,6,7-tetrahydro-4H-pyrazolo[4,3-b]pyridin-4-yl)methanone] as the compound, how does the pEC50 read?
A: 4.58

Q: How did the pEC50 turn out when CCCOCn1cc(NC(=O)c2ccc(-c3c[nH]c([N+](=O)[O-])c3)o2)c(-c2ccccn2)n1 [Compound I-24, 5-(5-nitro-1H-pyrrol-3-yl)-N-(1-(propoxymethyl)-3-(pyridin-2-yl)-1H-pyrazol-4-yl)furan-2-carboxamide] was run?
A: 5.37

Q: How did the pEC50 turn out when COc1ccc(Cn2cc(-c3nc(C(=O)Nc4c[nH]nc4-c4ccccn4)cs3)cn2)cc1 [II-53, 2-(1-(4-methoxybenzyl)-1H-pyrazol-4-yl)-N-(3-(pyridin-2-yl)-1H-pyrazol-4-yl)thiazole-4-carboxamide] was run?
A: 4.62

Q: O=C(Nc1cn(C2CCC2)nc1-c1ccccn1)c1ccc(-c2cnn(C3CCC3)c2)o1 [Compound I-122, 5-(1-cyclobutyl-1H-pyrazol-4-yl)-N-(1-cyclobutyl-3-(pyridin-2-yl)-1H-pyrazol-4-yl)furan-2-carboxamide 2,2,2-trifluoroacetate] was tested. Which pEC50 did it give?
A: 5.42

Q: CC1(O)CC(n2cc(NC(=O)c3csc(-c4cn[nH]c4)n3)c(-c3ccccn3)n2)C1 (stereo not shown) [II-87, N-(1-(3-hydroxy-3-methylcyclobutyl)-3-(pyridin-2-yl)-1H-pyrazol-4-yl)-2-(1H-pyrazol-4-yl)thiazole-4-carboxamide] was tested. Which pEC50 did it give?
A: 6.21

Q: How did the pEC50 turn out when CCO[C@H]1C[C@@H](n2cc(NC(=O)c3csc(-c4c(C)n[nH]c4C)n3)c(-c3ccccn3)n2)C1 [II-93, 2-(3,5-dimethyl-1H-pyrazol-4-yl)-N-(1-((1,3-cis)-3-ethoxycyclobutyl)-3-(pyridin-2-yl)-1H-pyrazol-4-yl)thiazole-4-carboxamide] was run?
A: 6.96

Q: How did the pEC50 turn out when COc1ccc(Cn2cc(-c3nc(C(=O)Nc4cn(CCF)nc4-c4ccccn4)cs3)cn2)cc1 [II-52, N-(1-(2-fluoroethyl)-3-(pyridin-2-yl)-1H-pyrazol-4-yl)-2-(1-(4-methoxybenzyl)-1H-pyrazol-4-yl)thiazole-4-carboxamide] was run?
A: 5.21

Q: How did the pEC50 turn out when Cn1cc(NC(=O)c2csc(-c3cn[nH]c3)n2)c(C#N)n1 [II-137, N-(3-cyano-1-methyl-1H-pyrazol-4-yl)-2-(1H-pyrazol-4-yl)thiazole-4-carboxamide] was run?
A: 6.69

Same assay, conditions: Homo sapiens, THP-1, 18 h, read-out: IL23-p19 ELISA, THP1-IFNy, LPS, 10 pt EC50 (μM)

Q: How did the EC50 turn out when CCOP(=O)(Cn1cc(-c2nc(C(=O)Nc3cn(C)nc3-c3ccccn3)cs2)cn1)OCC [II-7, diethyl ((4-(4-((1-methyl-3-(pyridin-2-yl)-1H-pyrazol-4-yl)carbamoyl)thiazol-2-yl)-1H-pyrazol-1-yl)methyl)phosphonate] was run?
A: 6.09 µM
